Holding throughout (format): biochemical
Assay [1] deals with Herpes Simplex Virus Protease.
Another assay concerns the target T1, HIV protease (Human immunodeficiency virus type 1 group M subtype B, UniProt P04585).
T1 construct: a key virally encoded protease enzyme of the pol gene

A further assay addresses T2, human cathepsin K (Homo sapiens, UniProt P43235).
T2 sequence (P43235 115-329): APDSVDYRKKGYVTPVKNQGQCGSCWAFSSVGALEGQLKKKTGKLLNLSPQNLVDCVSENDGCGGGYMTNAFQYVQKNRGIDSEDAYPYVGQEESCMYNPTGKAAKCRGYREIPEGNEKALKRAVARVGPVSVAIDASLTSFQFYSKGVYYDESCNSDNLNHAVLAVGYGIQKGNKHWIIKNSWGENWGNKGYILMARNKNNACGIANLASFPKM
The assay can be described thus: Inhibition of human cathepsin K (fluorescence peptide assay). As to conditions: compound concentration 106 μmolar; pH 5.5, 10 μmolar peptide. As for the experimental part: The inhibition of human cathepsin K by the compound shown in Scheme N (106 μmolar) was determined. The peptides utilized were chromophoric Z-Phe-Arg-pNA*HCl and fluorogenic Z-Phe-Arg-AMC (each available from BACHEM Bioscience, Inc.). Stock solutions were prepared with 100% dimethylsulfoxide (DMSO) and stored at −20° C.
The final assay conditions were 100 mM NaOAc, pH of 5.5, 10 mM (R,R)-dithiothreitol (DTT), 10% DMSO, 120 mM NaCl, 10 μmolar of the peptide, and 12.5-0.012 μmolar inhibitor in twofold serial dilutions from 20× stocks in 100% DMSO. The enzyme working solution was a 1:3000 dilution of […] human cathepsin K into 100 mM of NaOAc, pH of 5.5, 10 mM DTT, 1.2 M NaCl.
Serial dilutions were performed in 100% DMSO. Columns 2-12 of an intermediate plate were filled with […] of 100% DMSO and column 1 was filled with […]. Next, […] of a 10 mM solution was added to column 1. A twofold serial dilution was prepared in columns 1-11 of the intermediate plate by sequential transfer of […] of the contents of each well in a column to the corresponding well of the next column, with mixing between each transfer. […] The fluorescence was monitored every 6 minutes for 72 minutes using a CytoFluor Series 4000 PerSeptive Biosystems multi-well fluorescence plate reader with the following settings: gain=50; 20 reads/well; 32° C.; lex=360±20 nm; and lem=440±120 nm.

As to `COP1(=O)N(Cc2ccccc2)CC=CCN1Cc1ccccc1` [Scheme K], the “inhibition of the protease” value in assay [1] stood at 25.5%.
For the molecule `C=CCOP1(=O)OCC=CCN1[C@H](C(=O)OC)C(C)C` (stereo partly drawn) [Scheme L], in assay [1], the “inhibition of the protease” value turned out to be 34.7%.
As to `COP1(=O)N[C@@H](C(C)C)C=C[C@H](C(C)C)O1` (stereo partly drawn) [Scheme M], the “inhibition of the protease” value in assay [1] turned out to be 33.5%.
Consider `CC(C)(C)OC(=O)NC(Cc1ccccc1)CN1CC=CCN(C[C@H](Cc2ccccc2)NC(=O)OC(C)(C)C)P1(=O)Cl` (stereo partly drawn) [Scheme N], for which the “inhibition of the protease” value in assay [1] is given as 44.4%; against HIV protease, 23%. Also, the “inhibition of human cathepsin K” value on human cathepsin K turned out to be 34%.

The values are drawn from patent US6420586B1 (priority 2000, dated 2002).
